Results: ChEMBL document CHEMBL1201862, “PubChem BioAssay data set” (2004)
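Results reflect a 48-hour exposure of cells in 96-well plates to compound at five concentrations. Abbreviation: GI50, concentration required for 50% inhibition of growth.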 The source made the active and inactive calls. Cut-off read from the data, not from the text of the source: active = GI50 up to about 1.1 µM and inactive = higher.

Experiments:
Test in all cases: inhibition of tumour cell growth, NCI panel, 48 h
[1] = system: UACC-62
[2] = system: MDA-MB-231
[3] = system: NCI-H522
[4] = system: KM12
[5] = system: UO-31
[6] = system: TK-10
[7] = system: MDA-MB-435
[8] = system: OVCAR-8
[9] = system: SF-539
[10] = system: HCC 2998
[11] = system: K562
[12] = system: NCI-H460
[13] = system: COLO 205
[14] = system: SW-620
[15] = system: T47D
[16] = system: SF-268
[17] = system: IGROV-1
[18] = system: RPMI-8226
[19] = system: HCT-15
[20] = system: MDA-N
[21] = system: A549
[22] = system: CCRF-CEM
[23] = system: NCI-H23
[24] = system: HT-29
[25] = system: MOLT-4
[26] = system: 786-0
[27] = system: SK-MEL-28
[28] = system: NCI-H226
[29] = system: HCT-116
[30] = system: HOP-62
[31] = system: BT-549
[32] = system: ACHN
[33] = system: PC-3
[34] = system: SN12C
[35] = system: M14
[36] = system: SK-OV-3
[37] = system: UACC-257
[38] = system: SF-295
[39] = system: A498
[40] = system: SR
[41] = system: SNB-75
[42] = system: SK-MEL-5
[43] = system: HL-60
[44] = system: LOX IMVI
[45] = system: MCF7
[46] = system: CAKI-1
[47] = system: EKVX
[48] = system: DU-145
[49] = system: SNB-19
[50] = system: Hs-578T
[51] = system: HOP-92
[52] = system: NCI/ADR-RES
[53] = system: SK-MEL-2
[54] = system: RXF 393
[55] = system: OVCAR-3
[56] = system: OVCAR-4
[57] = system: Malme-3M
[58] = system: U-251
[59] = system: OVCAR-5

COc1cc(C2SC(=N)Nc3c2c(C)nn3C(=O)Cc2ccccc2)cc(OC)c1OC (stereo not given)
GI50 [1]: > 100 µM (inactive) | GI50 [2]: > 100 µM (inactive) | GI50 [3]: > 100 µM (inactive) | GI50 [4]: > 100 µM (inactive) | GI50 [5]: > 100 µM (inactive) | GI50 [6]: > 100 µM (inactive) | GI50 [7]: > 100 µM (inactive) | GI50 [8]: > 100 µM (inactive) | GI50 [9]: > 100 µM (inactive) | GI50 [10]: > 100 µM (inactive) | GI50 [11]: > 100 µM (inactive) | GI50 [12]: > 100 µM (inactive) | GI50 [13]: > 100 µM (inactive) | GI50 [14]: > 100 µM (inactive) | GI50 [15]: > 100 µM (inactive) | GI50 [16]: > 100 µM (inactive) | GI50 [17]: > 100 µM (inactive) | GI50 [18]: > 100 µM (inactive) | GI50 [19]: > 100 µM | GI50 [20]: > 100 µM (inactive) | GI50 [21]: > 100 µM (inactive) | GI50 [22]: > 100 µM (inactive) | GI50 [23]: > 100 µM (inactive) | GI50 [24]: > 100 µM (inactive) | GI50 [25]: > 100 µM (inactive) | GI50 [26]: > 100 µM (inactive) | GI50 [27]: > 100 µM (inactive) | GI50 [28]: > 100 µM (inactive) | GI50 [29]: > 100 µM (inactive) | GI50 [30]: > 100 µM (inactive) | GI50 [31]: > 100 µM (inactive) | GI50 [32]: > 100 µM (inactive) | GI50 [33]: > 100 µM (inactive) | GI50 [34]: > 100 µM (inactive) | GI50 [35]: > 100 µM (inactive) | GI50 [36]: > 100 µM (inactive) | GI50 [37]: > 100 µM (inactive) | GI50 [38]: > 100 µM (inactive) | GI50 [39]: > 100 µM (inactive) | GI50 [40]: > 100 µM (inactive) | GI50 [41]: 28.4 µM (inactive) | GI50 [42]: > 100 µM (inactive) | GI50 [43]: > 100 µM (inactive) | GI50 [44]: > 100 µM (inactive) | GI50 [45]: > 100 µM (inactive) | GI50 [46]: > 100 µM (inactive) | GI50 [47]: > 100 µM (inactive) | GI50 [48]: > 100 µM (inactive) | GI50 [49]: > 100 µM (inactive) | GI50 [50]: > 100 µM (inactive)

Cc1ccccc1C(O)(c1nccn1C)c1nccn1C
GI50 [51]: > 100 µM (inactive) | GI50 [52]: > 100 µM (inactive) | GI50 [1]: > 100 µM (inactive) | GI50 [3]: > 100 µM (inactive) | GI50 [4]: > 100 µM (inactive) | GI50 [53]: > 100 µM (inactive) | GI50 [5]: > 100 µM (inactive) | GI50 [6]: > 100 µM (inactive) | GI50 [7]: > 100 µM (inactive) | GI50 [8]: > 100 µM (inactive) | GI50 [9]: > 100 µM (inactive) | GI50 [10]: > 100 µM (inactive) | GI50 [11]: > 100 µM (inactive) | GI50 [12]: > 100 µM (inactive) | GI50 [13]: > 100 µM (inactive) | GI50 [14]: > 100 µM (inactive) | GI50 [15]: > 100 µM (inactive) | GI50 [16]: > 100 µM (inactive) | GI50 [17]: > 100 µM (inactive) | GI50 [54]: > 100 µM (inactive) | GI50 [19]: > 100 µM | GI50 [20]: > 100 µM (inactive) | GI50 [21]: > 100 µM (inactive) | GI50 [22]: > 100 µM (inactive) | GI50 [55]: > 100 µM (inactive) | GI50 [24]: > 100 µM (inactive) | GI50 [25]: > 100 µM (inactive) | GI50 [26]: > 100 µM (inactive) | GI50 [27]: > 100 µM (inactive) | GI50 [56]: > 100 µM (inactive) | GI50 [28]: > 100 µM (inactive) | GI50 [29]: > 100 µM (inactive) | GI50 [30]: > 100 µM (inactive) | GI50 [31]: > 100 µM (inactive) | GI50 [32]: > 100 µM (inactive) | GI50 [33]: > 100 µM (inactive) | GI50 [57]: > 100 µM (inactive) | GI50 [34]: > 100 µM (inactive) | GI50 [35]: > 100 µM (inactive) | GI50 [36]: > 100 µM (inactive) | GI50 [37]: > 100 µM (inactive) | GI50 [38]: > 100 µM (inactive) | GI50 [39]: > 100 µM (inactive) | GI50 [40]: > 100 µM (inactive) | GI50 [41]: > 100 µM (inactive) | GI50 [42]: > 100 µM (inactive) | GI50 [43]: > 100 µM (inactive) | GI50 [45]: > 100 µM (inactive) | GI50 [46]: > 100 µM (inactive) | GI50 [58]: > 100 µM (inactive) | GI50 [47]: > 100 µM (inactive) | GI50 [48]: > 100 µM (inactive) | GI50 [59]: > 100 µM (inactive) | GI50 [49]: > 100 µM (inactive) | GI50 [50]: > 100 µM (inactive)

O=c1c(C(c2ccc(/C=C/c3ccccc3)cc2)c2c(O)oc3ccccc3c2=O)c(O)oc2ccccc12
GI50 [51]: 23.1 µM (inactive) | GI50 [52]: 24.9 µM (inactive) | GI50 [1]: 35.6 µM (inactive) | GI50 [2]: 28.7 µM (inactive) | GI50 [3]: 18.6 µM (inactive) | GI50 [4]: 23 µM (inactive) | GI50 [53]: 34.8 µM (inactive) | GI50 [5]: 18.6 µM (inactive) | GI50 [6]: 92.5 µM (inactive) | GI50 [7]: 29 µM (inactive) | GI50 [8]: 20.2 µM (inactive) | GI50 [10]: 23.3 µM (inactive) | GI50 [11]: > 100 µM (inactive) | GI50 [12]: 24.5 µM (inactive) | GI50 [13]: 22.6 µM (inactive) | GI50 [14]: 37.9 µM (inactive) | GI50 [15]: 39.2 µM (inactive) | GI50 [16]: 22.4 µM (inactive) | GI50 [17]: 27.3 µM (inactive) | GI50 [18]: 27.2 µM (inactive) | GI50 [19]: 44 µM | GI50 [20]: 21.8 µM (inactive) | GI50 [22]: 41.4 µM (inactive) | GI50 [55]: 36 µM (inactive) | GI50 [23]: 28.1 µM (inactive) | GI50 [24]: 20.3 µM (inactive) | GI50 [25]: 24.1 µM (inactive) | GI50 [26]: 24.4 µM (inactive) | GI50 [27]: 33.3 µM (inactive) | GI50 [56]: 35.6 µM (inactive) | GI50 [28]: 28.2 µM (inactive) | GI50 [29]: 29.6 µM (inactive) | GI50 [30]: 27.8 µM (inactive) | GI50 [31]: 26.6 µM (inactive) | GI50 [32]: 18.8 µM (inactive) | GI50 [33]: 40.2 µM (inactive) | GI50 [57]: 21.6 µM (inactive) | GI50 [34]: 21.8 µM (inactive) | GI50 [37]: 53.7 µM (inactive) | GI50 [39]: 30.5 µM (inactive) | GI50 [41]: 19.7 µM (inactive) | GI50 [42]: 26.5 µM (inactive) | GI50 [43]: 49.3 µM (inactive) | GI50 [44]: 25.8 µM (inactive) | GI50 [46]: 23 µM (inactive) | GI50 [58]: 18.5 µM (inactive) | GI50 [47]: 28.6 µM (inactive) | GI50 [48]: 50.8 µM (inactive) | GI50 [49]: 46.9 µM (inactive) | GI50 [50]: 26.8 µM (inactive)
